Measured values published in patent publication US20200407717A1, “METHODS OF MODULATING ANTISENSE ACTIVITY” (Ionis Pharmaceuticals, Inc., priority 2018, published 2020).
e = 2'-O-(2-methoxyethyl) (MOE); k = constrained ethyl (cEt); d = 2'-deoxy (DNA); f = 2'-fluoro

Target: EGFR (Homo sapiens, UniProt P00533)
Assay: Competitive NanoBRET binding assay
Set-up: made in house; host or cells: HEK293 cells
Conditions: Competitive BRET vs 10 nM AF594-labeled 766636; Table 6
Method: NanoBRET (bioluminescence resonance energy transfer) binding assays were performed as described in Vickers and Crooke. PLOS One, 11(8), (2016). An EGFR NLuc construct was prepared by first amplifying human EGFR from the full length cDNA clone (Origene RC217223) with forward PCR primer 5′-[…]-3′ (SEQ ID NO: 1) and reverse PCR primer 5′-[…] (SEQ ID NO: 2). The amplified product was ligated into the NheI and XhoI sites of the NanoLuc expression vector pFC32K Nluc CMV-Neo (Promega). Protein was expressed in HEK293 cells and isolated using Protein G magnetic beads. For competitive BRET, the Alexafluor594-labeled modified oligonucleotide 766636 was diluted into water in opaque white 96-well plates at 10 nM and competed with 0.1-10,000 nM of unlabeled modified oligonucleotide. […] of 2× binding buffer containing […] (relative luminescence units) beads/well was added and plates were shaken for 10 minutes at room temperature. Nanoluciferase activity and BRET were measured in a Glowmax Discover plate reader and EC50 values, shown in the tables below, were calculated using GraphPad Prism. For direct BRET, Alexafluor594 modified nucleotides were diluted at 0.1-10,000 nM and experiments were performed as described above.

| Sequence | EC50 [nM] |
| --- | --- |
| AACGAGGTACTGTGTAAGTC (sugars from the 5' end f5 d10 f5, all phosphorothioate, methylation of C and T or U not given here) [compound 1147369] | 2630 |
| AAGCAGTTGGTGGTGC (sugars from the 5' end k3 d10 k3, all phosphorothioate, methylation of C not given here) [compound 999005] | 39.1 |
| AATCTCCTTGCTGTATTTGT (sugars from the 5' end f5 d10 f5, all phosphorothioate, methylation of C and T or U not given here) [compound 1147334, 5-10-5 2′-F gapmer, phosphorothioate] | 4370 |
| ACACGGTATTGCCCTTGAAA (sugars from the 5' end e5 d10 e5, all phosphorothioate, methylation of C not given here) [compound 110128, 5-10-5 2′-MOE gapmer, phosphorothioate] | 2280 |
| ACCCAATTCAGAAGGAAGGA (sugars from the 5' end e5 d10 e5, all phosphorothioate, methylation of C not given here) [compound 476366, 5-10-5 2′-MOE gapmer, phosphorothioate] | 2240 |
| AGGATGCATTGCTGAC (sugars from the 5' end k3 d10 k3, all phosphorothioate, methylation of C not given here) [compound 999006] | 1710 |
| AGTTGTCATGGATGAC (sugars from the 5' end k3 d10 k3, all phosphorothioate, methylation of C not given here) [compound 999003] | 2300 |
| ATATTGCATCAGATCTCAAT (sugars from the 5' end f5 d10 f5, all phosphorothioate, methylation of C and T or U not given here) [compound 1147370] | 4650 |
| AUAAUCTTCCAGGGCCACAA (sugars from the 5' end f5 d10 f5, all phosphorothioate, methylation of C not given here) [compound 1147360, 5-10-5 2′-F gapmer, phosphorothioate] | 108 |
| CAGCAGGCAACTGTCGCTGA (sugars from the 5' end e5 d10 e5, all phosphorothioate, methylation of C not given here) [compound 462026, 5-10-5 2′-MOE gapmer, phosphorothioate] | 670 |
| CCTTCCACAATGCCAA (sugars from the 5' end k3 d10 k3, all phosphorothioate, methylation of C not given here) [compound 999002, 3-10-3 cEt gapmer, phosphorothioate] | 633 |
| CCTTCCCTGAAGGTTCCTCC (sugars from the 5' end f5 d10 f5, all phosphorothioate, methylation of C and T or U not given here) [compound 804856, 5-10-5 2′-F gapmer, phosphorothioate] | 2750 |
| CTAACATGCAATACTGCAGA (sugars from the 5' end e5 d10 e5, all phosphorothioate, methylation of C not given here) [compound 395257, 5-10-5 2′-MOE gapmer, phosphorothioate] | 2630 |
| CTGATGATCTGCAGGTTTTC (sugars from the 5' end f5 d10 f5, all phosphorothioate, methylation of C and T or U not given here) [compound 1147367] | 114 |
| CTTTCCAGAGGGGCCA (sugars from the 5' end k3 d10 k3, all phosphorothioate, methylation of C not given here) [compound 998998, 3-10-3 cEt gapmer, phosphorothioate] | 7.25 |
| CUGUUGGGATATTTTAGCCU (sugars from the 5' end f5 d10 f5, all phosphorothioate, methylation of C not given here) [compound 1147366] | 87.2 |
| GACTGTGGTCATGAGC (sugars from the 5' end k3 d10 k3, all phosphorothioate, methylation of C not given here) [compound 999001] | 2340 |
| GAGTCAGTATCCCAGTGTCT (sugars from the 5' end f5 d10 f5, all phosphorothioate, methylation of C and T or U not given here) [compound 1147314, 5-10-5 2′-F gapmer, phosphorothioate] | 218 |
| GGCCATCACGCCACAG (sugars from the 5' end k3 d10 k3, all phosphorothioate, methylation of C not given here) [compound 998997, 3-10-3 cEt gapmer, phosphorothioate] | 2800 |
| TAAGTACTACTGGGCCATGG (sugars from the 5' end e5 d10 e5, all phosphorothioate, methylation of C not given here) [compound 324568, 5-10-5 2′-MOE gapmer, phosphorothioate] | 648 |
| TCCACAGTCTTCTGGG (sugars from the 5' end k3 d10 k3, all phosphorothioate, methylation of C not given here) [compound 998999, 3-10-3 cEt gapmer, phosphorothioate] | 214 |
| TCGTCTGTGCATCTCTCCTG (sugars from the 5' end f5 d10 f5, all phosphorothioate, methylation of C and T or U not given here) [compound 1147291, 5-10-5 2′-F gapmer, phosphorothioate] | 165 |
| TGGCAGTGATGGCATG (sugars from the 5' end k3 d10 k3, all phosphorothioate, methylation of C not given here) [compound 999000] | 1400 |
| TGGTAATCCACTTTCAGAGG (sugars from the 5' end e5 d10 e5, all phosphorothioate, methylation of C not given here) [compound 404071, 5-10-5 2′-MOE gapmer, phosphorothioate] | 3140 |
| TTCTGGGCAGCCCCAC (sugars from the 5' end k3 d10 k3, all phosphorothioate, methylation of C not given here) [compound 998996, 3-10-3 cEt gapmer, phosphorothioate] | 1430 |
| TTTTGGCAAAGTAATCGTCC (sugars from the 5' end e5 d10 e5, all phosphorothioate, methylation of C not given here) [compound 286529, 5-10-5 2′-MOE gapmer, phosphorothioate] | 1840 |
